IC50 data for 22 compounds are collected here from patent US8883801B2, “Substituted pyrazolo[1,5-a]pyrimidines as mTOR inhibitors” (Merck Sharp & Dohme Corp., priority 2010, dated 2014).

For experiment [1], the system named is mTORC2 activity: phosphorylated AKT Ser473 (pAKT S473) in PC3 cells. Put plainly: mTOR target engagement assay, immunofluorescent cell-based, mTORC2 readout. The following applies: Homo sapiens, PC-3, 1.5 h, 90 min treatment. As for the experimental part: The target engagement of mTOR kinase inhibitors was evaluated using an immunofluorescent cell-based assay. In this assay, inhibition of mTORC1 activity was measured by the reduction in the level of phosphorylated 4E-BP1Thr37/46 (p4E-BP1 Thr37/46), and inhibition of mTORC2 activity was measured by the reduction of phosphorylated AKTSer473 (pAKT S473).
PC3 cells (prostate tumor cell-line that contains a mutation in the tumor suppressor PTEN, that promotes the phosphorylation and activation of AKT and 4E-BP1) were used in the immunofluorescence assay. PC3 cells were seeded on 384 well plates (black clear bottom, Matrix #4332) overnight. PC3 cells were then treated with 40 μl of the serially diluted test compounds (in 5% fetal bovine serum, F12 medium containing 0.25% DMSO) for ninety minutes at 37° C. The test compound solution was removed, and the plates were washed gently two times with 25 μl phosphate buffered saline (PBS). The cells were fixed by adding 25 μl of Prefer reagent (from Anatech LTD, Cat#414, a glyoxal fixative for fixing proteins within a cell) for sixty minutes followed by three washes with PBS. 5% Goat serum in PBS/0.3% Triton was used to block non-specific binding (60 minutes).
The primary antibodies targeting pAKT S473 and p4E-BP1 Thr37/46 were diluted into PBS/0.3% Triton and incubated with the cells overnight at 4° C. The antibodies targeting pAKTS473 (Cat#4085, Cell signaling) and p4E-BP1 Thr37/46 (Cat#2855, Cell signaling) were used at a 1:100 dilution. Plates were washed three times with PBS/0.1% Tween 20 before adding the secondary antibody at a 1:200 dilution. (goat anti-rabbit containing a fluorescent label, Alexa Fluor 488, Cat#A11008, Invitrogen) in PBS/0.3% Triton for 60 minutes.
Finally, the plates were washed three times with PBS/0.1% Tween 20 and the fluorescent intensity was read using an Analyst HT from Molecular Devices. The fluorescent intensity values from the serially diluted compound treatment group were analyzed using the Xlfit 4 program ([…]) (Formula 205: Y=Bottom+(Top-Bottom)/(1+(IC50/X)^Hillslope) to generate the IC50 value. Where Top is the maximum signal without Compound (+DMSO only) and Bottom represents maximum inhibition. Y is the fluorescence at some compound concentration. The control used to determine the fluorescent intensities for 100% pAKT S473 or 100% phosphorylated p4E-BP1 Thr37/46 were measured from untreated wells that contained only DMSO, instead of test compound.

The target in the next experiment is human mTOR enzyme (Homo sapiens, UniProt P42345). In words: HTRF mTOR enzyme (kinase) assay. Format: biochemical. Conditions: 5 μM ATP, 0.2 μM GST-S6K, read-out: hMTOR IC50.
Chain of human mTOR enzyme (P42345 1360-2549 limits assumed): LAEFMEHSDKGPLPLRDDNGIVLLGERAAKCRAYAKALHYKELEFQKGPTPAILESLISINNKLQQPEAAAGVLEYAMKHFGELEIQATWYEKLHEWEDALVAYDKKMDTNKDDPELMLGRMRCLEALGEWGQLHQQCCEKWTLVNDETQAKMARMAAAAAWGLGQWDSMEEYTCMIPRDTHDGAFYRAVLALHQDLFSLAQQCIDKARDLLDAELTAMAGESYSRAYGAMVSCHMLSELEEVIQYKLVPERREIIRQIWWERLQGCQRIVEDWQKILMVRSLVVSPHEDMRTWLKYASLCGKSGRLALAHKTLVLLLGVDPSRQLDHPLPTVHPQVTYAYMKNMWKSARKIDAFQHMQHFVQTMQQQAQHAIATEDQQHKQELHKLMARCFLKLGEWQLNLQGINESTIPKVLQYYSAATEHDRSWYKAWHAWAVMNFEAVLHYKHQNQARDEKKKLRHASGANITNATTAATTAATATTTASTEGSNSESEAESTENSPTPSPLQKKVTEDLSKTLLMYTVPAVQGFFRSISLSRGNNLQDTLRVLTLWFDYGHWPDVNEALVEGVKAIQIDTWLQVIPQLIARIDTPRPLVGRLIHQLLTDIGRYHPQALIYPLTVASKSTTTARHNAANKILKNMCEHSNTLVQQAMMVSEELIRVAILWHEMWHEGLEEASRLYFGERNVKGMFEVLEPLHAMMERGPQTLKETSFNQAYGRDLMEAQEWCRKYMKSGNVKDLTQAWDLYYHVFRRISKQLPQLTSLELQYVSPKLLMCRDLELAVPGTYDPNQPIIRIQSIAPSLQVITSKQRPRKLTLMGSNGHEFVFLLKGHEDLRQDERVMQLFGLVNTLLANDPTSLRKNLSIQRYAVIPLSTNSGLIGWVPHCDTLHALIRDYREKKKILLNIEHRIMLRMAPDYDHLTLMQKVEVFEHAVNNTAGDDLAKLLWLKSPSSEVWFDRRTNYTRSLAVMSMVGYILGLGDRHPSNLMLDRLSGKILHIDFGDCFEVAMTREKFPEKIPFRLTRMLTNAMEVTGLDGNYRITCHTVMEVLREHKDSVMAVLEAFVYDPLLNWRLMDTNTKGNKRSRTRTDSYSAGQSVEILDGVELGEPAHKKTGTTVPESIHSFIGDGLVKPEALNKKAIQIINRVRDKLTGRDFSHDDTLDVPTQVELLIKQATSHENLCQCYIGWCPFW

Where two headings read alike, the source gives them in different places.

As for `COCCO[C@]1(C(=O)O)CC[C@@H](c2nc3c(-c4ccc(-c5cscn5)nc4)cnn3c(N)c2C(C)=O)CC1` [Compound 62, (1R,4R)-4-(6-acetyl-7-amino-3-(6-(thiazol-4-yl)pyridin-3-yl)pyrazolo[1,5-a]pyrimidin-5-yl)-1-(2-methoxyethoxy) cyclohexanecarboxylic acid], the IC50 is 100 to 1000 nM in experiment [1] (rated class) and 1 to 100 nM on human mTOR enzyme (rated class).

Turning to `COCCO[C@]1(C(=O)O)CC[C@@H](c2nc3c(-c4ccc(-c5ccccc5)nc4)cnn3c(N)c2SC)CC1` [Compound 63, (1R,4R)-4-(7-amino-6-(methylthio)-3-(6-phenylpyridin-3-yl)pyrazolo[1,5-a]pyrimidin-5-yl)-1-(2-methoxyethoxy)cyclohexanecarboxylic acid], the IC50 lay within 1000 to 2000 nM in experiment [1] (rated class) and 1 to 100 nM on human mTOR enzyme (rated class).

For the compound `Nc1c(Br)c([C@H]2CC[C@@](OCCN3CCOCC3)(C(=O)O)CC2)nc2c(-c3ccc(-c4ccccc4)nc3)cnn12` [Compound 65, (1R,4R)-4-(7-amino-6-bromo-3-(6-phenylpyridin-3-yl)pyrazolo[1,5-a]pyrimidin-5-yl)-1-(2-morpholinoethoxy) cyclohexanecarboxylic acid], the results for the IC50 (in experiment [1] (rated class); on human mTOR enzyme (rated class)) were 1000 to 2000 nM and 1 to 100 nM, respectively.

Consider `Nc1c(Br)c([C@H]2CC[C@](OCCN3CCOCC3)(C(=O)O)CC2)nc2c(-c3ccc(-c4ccccc4)nc3)cnn12` [Compound 66, (1S,4S)-4-(7-amino-6-bromo-3-(6-phenylpyridin-3-yl)pyrazolo[1,5-a]pyrimidin-5-yl)-1-(2-morpholinoethoxy) cyclohexanecarboxylic acid], for which the IC50 in experiment [1] (rated class) was in the range of 1000 to 2000 nM; on human mTOR enzyme (rated class), 1 to 100 nM.

`Nc1c(Br)c([C@H]2CC[C@]3(CC2)NC(=O)NC3=O)nc2c(-c3ccc(-c4ccccc4)nc3)cnn12` [Compound 72, 8-(7-amino-6-bromo-3-(6-phenylpyridin-3-yl)pyrazolo[1,5-a]pyrimidin-5-yl)-1,3-diazaspiro[4.5]decane-2,4-dione]: the IC50 in experiment [1] (numeric value) was determined as 870 nM; on human mTOR enzyme (numeric value), 11.7 nM.

In the case of `Nc1c(Br)c(C2CCC(N)(C(=O)O)CC2)nc2c(-c3ccc(-c4ccccc4)nc3)cnn12` (centres unmarked) [Compound 73, 1-amino-4-(7-amino-6-bromo-3-(6-phenylpyridin-3-yl)pyrazolo[1,5-a]pyrimidin-5-yl)cyclohexanecarboxylic acid], the figures for the IC50 (in experiment [1] (rated class); on human mTOR enzyme (rated class)) were 5000 to 15000 nM and 1 to 100 nM, respectively.

For `N#CC1(O)CCC(c2nc3c(-c4ccc(-c5ccccc5)nc4)cnn3c(N)c2Br)CC1` (centres unmarked) [Compound 74, 4-(7-amino-6-bromo-3-(6-phenylpyridin-3-yl)pyrazolo[1,5-a]pyrimidin-5-yl)-1-hydroxycyclohexanecarbonitrile], the IC50 is 2000 to 5000 nM in experiment [1] (rated class) and 1 to 100 nM at human mTOR enzyme (rated class).

On to `COC1(C#N)CCC(c2nc3c(-c4ccc(-c5ccccc5)nc4)cnn3c(N)c2Br)CC1` (centres unmarked) [Compound 75, 4-(7-amino-6-bromo-3-(6-phenylpyridin-3-yl)pyrazolo[1,5-a]pyrimidin-5-yl)-1-methoxycyclohexane-carbonitrile], for which the IC50 in experiment [1] (rated class) lay within 2000 to 5000 nM; at human mTOR enzyme (rated class) it was 1 to 100 nM.

`Nc1c(Br)c([C@H]2CC[C@](O)(CC(=O)O)CC2)nc2c(-c3ccc(-c4ccccc4)nc3)cnn12` [Compound 77, 2-((1S,4S)-4-(7-amino-6-bromo-3-(6-phenylpyridin-3-yl)pyrazolo[1,5-a]pyrimidin-5-yl)-1-hydroxycyclohexyl)-acetic acid]: the half-maximal inhibitory concentration (IC50) in experiment [1] (rated class) lay in the range of 1000 to 2000 nM; at human mTOR enzyme (rated class), 1 to 100 nM.

As to `Nc1c(Br)c([C@H]2CC[C@@](O)(CC(=O)O)CC2)nc2c(-c3cnn(-c4ccccc4)c3)cnn12` [Compound 79, 2-((1R,4R)-4-(7-amino-6-bromo-3-(1-phenyl-1H-pyrazol-4-yl)pyrazolo[1,5-a]pyrimidin-5-yl)-1-hydroxycyclohexyl)-acetic acid], the figures for the IC50 (in experiment [1] (rated class); at human mTOR enzyme (rated class)) were 100 to 1000 nM and 1 to 100 nM, respectively.

Take `COC1(CO)CCC(c2nc3c(-c4ccc(-c5ccccc5)nc4)cnn3c(N)c2Br)CC1` (centres unmarked) [Compound 82, (4-(7-amino-6-bromo-3-(6-phenylpyridin-3-yl)pyrazolo[1,5-a]pyrimidin-5-yl)-1-methoxycyclohexyl)methanol]: the IC50 was in the range of 100 to 1000 nM in experiment [1] (rated class) and 1 to 100 nM on human mTOR enzyme (rated class).

As to `COCCOC1(CO)CCC(c2nc3c(-c4cnn(-c5ccccc5)c4)cnn3c(N)c2Br)CC1` (centres unmarked) [Compound 83, (4-(7-amino-6-bromo-3-(1-phenyl-1H-pyrazol-4-yl)pyrazolo[1,5-a]pyrimidin-5-yl)-1-(2-methoxyethoxy)-cyclohexyl)methanol], the values for the IC50 (in experiment [1] (rated class); on human mTOR enzyme (rated class)) were 1000 to 2000 nM and 1 to 100 nM, respectively.

Take `CO[C@]1(CO)CC[C@@H](c2nc3c(-c4ccc(-c5ccccc5)nc4)cnn3c(N)c2C(C)=O)CC1` [Compound 84, 1-(7-amino-5-((1R,4R)-4-(hydroxymethyl)-4-methoxycyclohexyl)-3-(6-phenylpyridin-3-yl)pyrazolo[1,5-a]pyrimidin-6-yl)ethanone]: the IC50 was 100 to 1000 nM in experiment [1] (rated class) and 1 to 100 nM on human mTOR enzyme (rated class).

In the case of `CO[C@]1(CO)CC[C@H](c2nc3c(-c4ccc(-c5ccccc5)nc4)cnn3c(N)c2C(C)=O)CC1` [Compound 85, 1-(7-amino-5-((1S,4S)-4-(hydroxymethyl)-4-methoxycyclohexyl)-3-(6-phenylpyridin-3-yl)pyrazolo[1,5-a]pyrimidin-6-yl)ethanone], the 50% inhibitory concentration (IC50) in experiment [1] (rated class) fell in the range of 100 to 1000 nM; at human mTOR enzyme (rated class), 1 to 100 nM.

With `COCCOC1(CO)CCC(c2nc3c(-c4ccc(-c5ccccc5)nc4)cnn3c(N)c2C(C)=O)CC1` (centres unmarked) [Compound 86, 1-(7-amino-5-(4-(hydroxymethyl)-4-(2-methoxyethoxy)-cyclohexyl)-3-(6-phenylpyridin-3-yl)pyrazolo[1,5-a]pyrimidin-6-yl)ethanone], the IC50 fell in the range of 100 to 1000 nM in experiment [1] (rated class) and 1 to 100 nM on human mTOR enzyme (rated class).

Regarding `COCCOC1(CO)CCC(c2nc3c(-c4cnn(-c5ccccc5)c4)cnn3c(N)c2C(C)=O)CC1` (centres unmarked) [Compound 87, 1-(7-amino-5-(4-(hydroxymethyl)-4-(2-methoxyethoxy)-cyclohexyl)-3-(1-phenyl-1H-pyrazol-4-yl)pyrazolo[1,5-a]pyrimidin-6-yl)ethanone], the figures for the IC50 (in experiment [1] (rated class); on human mTOR enzyme (rated class)) were 100 to 1000 nM and 1 to 100 nM, respectively.

For the compound `COCCO[C@]1(C(=O)NN)CC[C@@H](c2nc3c(-c4cnn(-c5ccccc5)c4)cnn3c(N)c2S(C)(=O)=O)CC1` [Compound 107, (1R,4R)-4-(7-amino-6-(methylsulfonyl)-3-(1-phenyl-1H-pyrazol-4-yl)pyrazolo[1,5-a]pyrimidin-5-yl)-1-(2-methoxyethoxy)-cyclohexane-carbohydrazide], the results for the IC50 (in experiment [1] (rated class); at human mTOR enzyme (rated class)) were 100 to 1000 nM and 1 to 100 nM, respectively.

For `CC(=O)c1c(C2CCC(CO)(C(=O)O)CC2)nc2c(-c3cnn(-c4ccccc4)c3)cnn2c1N` (centres unmarked) [Compound 132, 4-(6-acetyl-7-amino-3-(1-phenyl-1H-pyrazol-4-yl)pyrazolo[1,5-a]pyrimidin-5-yl)-1-(hydroxymethyl)cyclohexanecarboxylic acid], the IC50 in experiment [1] (rated class) fell in the range of 100 to 1000 nM; on human mTOR enzyme (rated class), 1 to 100 nM.

For the compound `Nc1c(Br)c(C2CCC(O)(CO)CC2)nc2c(-c3ccc(-c4ccccc4)nc3)cnn12` (centres unmarked) [Compound 134, 4-(7-amino-6-bromo-3-(6-phenylpyridin-3-yl)pyrazolo[1,5-a]pyrimidin-5-yl)-1-(hydroxymethyl)cyclohexanol], the IC50 in experiment [1] (numeric value) worked out at 209 nM; on human mTOR enzyme (numeric value), 7.37 nM.

As for `Nc1c(Br)c(C2CCC(O)(CO)CC2)nc2c(-c3cnn(-c4ccccc4)c3)cnn12` (centres unmarked) [Compound 135, 4-(7-amino-6-bromo-3-(1-phenyl-1H-pyrazol-4-yl)pyrazolo[1,5-a]pyrimidin-5-yl)-1-(hydroxymethyl)-cyclohexanol], the IC50 lay in the range of 100 to 1000 nM in experiment [1] (rated class) and 1 to 100 nM on human mTOR enzyme (rated class).

In the case of `Nc1c(Br)c(C2CCC(O)(CO)CC2)nc2c(-c3cnc4ccc(F)cc4c3)cnn12` (centres unmarked) [Compound 136, 4-(7-amino-6-bromo-3-(6-fluoroquinolin-3-yl)pyrazolo[1,5-a]pyrimidin-5-yl)-1-(hydroxymethyl)cyclohexanol], the figures for the IC50 (in experiment [1] (rated class); on human mTOR enzyme (rated class)) were 100 to 1000 nM and 1 to 100 nM, respectively.

With `Nc1c(Br)c([C@H]2CC[C@](O)(CCO)CC2)nc2c(-c3ccc(-c4ccccc4)nc3)cnn12` [Compound 137, (1S,4S)-4-(7-amino-6-bromo-3-(6-phenylpyridin-3-yl)pyrazolo[1,5-a]pyrimidin-5-yl)-1-(2-hydroxyethyl)cyclohexanol], the IC50 in experiment [1] (rated class) fell in the range of 100 to 1000 nM; on human mTOR enzyme (rated class) it was 1 to 100 nM.

Broadly, the IC50 is the midpoint of a concentration-inhibition curve.
